Source: PubChem BioAssay (NCI)
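Interpolation was linear, between the two tested concentrations surrounding the appropriate level; five concentrations were tested over 48 hours in 96-well plates. Definition used: TGI = concentration required for complete inhibition of growth.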

Assays:
Assay in all cases: growth of human tumour cells (NCI), 48 h
UACC-62 melanoma = test system: UACC-62 melanoma
HOP-62 NSCLC = test system: HOP-62 NSCLC
786-0 renal = test system: 786-0 renal
SF-268 CNS = test system: SF-268 CNS
NCI-H522 lung = test system: NCI-H522 lung
DU-145 prostate = test system: DU-145 prostate
NCI-H226 lung = test system: NCI-H226 lung
U251 CNS = test system: U251 CNS
MDA-MB-435 = test system: MDA-MB-435
MOLT-4 leukemia = test system: MOLT-4 leukemia
K-562 leukemia = test system: K-562 leukemia
UACC-257 melanoma = test system: UACC-257 melanoma
MDA-MB-231 breast = test system: MDA-MB-231 breast
KM12 colon = test system: KM12 colon
HOP-92 NSCLC = test system: HOP-92 NSCLC
SF-539 CNS = test system: SF-539 CNS
M14 melanoma = test system: M14 melanoma
SNB-19 CNS = test system: SNB-19 CNS
T-47D breast = test system: T-47D breast
NCI/ADR-RES ovarian = test system: NCI/ADR-RES ovarian
SNB-75 CNS = test system: SNB-75 CNS
SR leukemia = test system: SR leukemia
SK-MEL-28 melanoma = test system: SK-MEL-28 melanoma
RXF 393 renal = test system: RXF 393 renal
NCI-H23 lung = test system: NCI-H23 lung
PC-3 prostate = test system: PC-3 prostate
ACHN renal = test system: ACHN renal
UO-31 renal = test system: UO-31 renal
HS 578T breast = test system: HS 578T breast
CAKI-1 renal = test system: CAKI-1 renal
BT-549 breast = test system: BT-549 breast
A549 NSCLC = test system: A549 NSCLC
SF-295 CNS = test system: SF-295 CNS
TK-10 renal = test system: TK-10 renal
EKVX NSCLC = test system: EKVX NSCLC
OVCAR-4 ovarian = test system: OVCAR-4 ovarian
SK-MEL-2 melanoma = test system: SK-MEL-2 melanoma
MCF7 breast = test system: MCF7 breast
NCI-H460 lung = test system: NCI-H460 lung
OVCAR-5 ovarian = test system: OVCAR-5 ovarian
OVCAR-3 ovarian = test system: OVCAR-3 ovarian
HT29 colon = test system: HT29 colon
SK-OV-3 ovarian = test system: SK-OV-3 ovarian
SW-620 colon = test system: SW-620 colon
COLO 205 colon = test system: COLO 205 colon
SK-MEL-5 melanoma = test system: SK-MEL-5 melanoma
LOX IMVI melanoma = test system: LOX IMVI melanoma
HCT-15 colon = test system: HCT-15 colon
MALME-3M melanoma = test system: MALME-3M melanoma
HCT-116 colon = test system: HCT-116 colon
HL-60(TB) leukemia = test system: HL-60(TB) leukemia
IGROV1 ovarian = test system: IGROV1 ovarian
OVCAR-8 ovarian = test system: OVCAR-8 ovarian
SN12C renal = test system: SN12C renal

COc1ccc(C2=C(Cl)C(=O)N(c3ccc(OC)cc3OC)C(=O)C2(Cl)Cl)cc1
TGI (UACC-62 melanoma): 28 µM
TGI (HOP-62 NSCLC): 36.9 µM
TGI (786-0 renal): 29 µM
TGI (SF-268 CNS): 65.9 µM
TGI (NCI-H522 lung): 36.5 µM
TGI (DU-145 prostate): 31 µM
TGI (NCI-H226 lung): 27.1 µM
TGI (U251 CNS): 30.2 µM
TGI (MDA-MB-435): 34.4 µM
TGI (MOLT-4 leukemia): 74 µM
TGI (K-562 leukemia): > 100 µM
TGI (UACC-257 melanoma): 39.3 µM
TGI (MDA-MB-231 breast): 20.5 µM
TGI (KM12 colon): 33.6 µM
TGI (HOP-92 NSCLC): 36.6 µM
TGI (SF-539 CNS): 23.5 µM
TGI (M14 melanoma): 29.7 µM
TGI (SNB-19 CNS): > 100 µM
TGI (T-47D breast): 30.3 µM
TGI (NCI/ADR-RES ovarian): 41.9 µM
TGI (SNB-75 CNS): 90.3 µM
TGI (SR leukemia): 36.4 µM
TGI (SK-MEL-28 melanoma): 36.1 µM
TGI (RXF 393 renal): 57 µM
TGI (NCI-H23 lung): 31 µM
TGI (PC-3 prostate): 33.5 µM
TGI (ACHN renal): 29.1 µM
TGI (UO-31 renal): 37.4 µM
TGI (HS 578T breast): 16.4 µM
TGI (CAKI-1 renal): 25.2 µM
TGI (BT-549 breast): 77.3 µM
TGI (A549 NSCLC): > 100 µM
TGI (SF-295 CNS): 66.4 µM
TGI (TK-10 renal): 37.7 µM
TGI (EKVX NSCLC): 87.1 µM
TGI (OVCAR-4 ovarian): 32.2 µM
TGI (SK-MEL-2 melanoma): 63.6 µM
TGI (MCF7 breast): 64.7 µM
TGI (NCI-H460 lung): > 100 µM
TGI (OVCAR-5 ovarian): 27.6 µM
TGI (OVCAR-3 ovarian): 25 µM
TGI (HT29 colon): 38.4 µM
TGI (SK-OV-3 ovarian): > 100 µM
TGI (SW-620 colon): 30.1 µM
TGI (COLO 205 colon): 39.4 µM
TGI (SK-MEL-5 melanoma): 28.1 µM
TGI (LOX IMVI melanoma): 30.8 µM
TGI (HCT-15 colon): 27.9 µM
TGI (MALME-3M melanoma): 35.8 µM
TGI (HCT-116 colon): 28.9 µM
TGI (HL-60(TB) leukemia): 69.8 µM
TGI (IGROV1 ovarian): 44.3 µM
TGI (OVCAR-8 ovarian): 52.4 µM
TGI (SN12C renal): 13.8 µM
